Assay results as given in US11089783B2, “2-(het)aryl-substituted fused heterocycle derivatives as pesticides” (Bayer Aktiengesellschaft, priority 2017, dated 2021).

Assays:
Type in all cases: in vivo
Aphis gossypii = Aphis gossypii spray test (APHIGO), cotton plants; conditions: 6 dat; for Emax at 0.8 ppm: Aphis gossypii, 144 h, read-out: % efficacy
Method: (§1) [table] To produce an appropriate active ingredient formulation, 1 part by weight of active ingredient is dissolved with the specified parts by weight of solvent and made up with water containing an emulsifier concentration of 1000 ppm until the desired concentration is attained. To produce further test concentrations, the mixture is diluted with emulsifier-containing water. If addition of ammonium salts or/and penetrants is required, these are each added to the preparation solution in a concentration of 1000 ppm. Cotton plants (Gossypium hirsutum) severely infested by the cotton aphid (Aphis gossypii) are sprayed with an active ingredient formulation of the desired concentration. After the desired time, the kill in % is determined. 100% means that all aphids have been killed; 0% means that no aphids have been killed.

Nilaparvata lugens = Nilaparvata lugens spray test (NILALU); conditions: 4 g/ha, 4 dat
Method: as §1, with “ppm. Rice” for “ppm. Cotton”, “plants (Oryza sativa)” for “plants (Gossypium hirsutum) severely infested by the cotton aphid (Aphis gossypii)”, “desired concentration and then populated with larvae of the brown planthopper (Nilaparvata lugens).” for “desired concentration.”, “the efficacy” for “the kill”, “all planthoppers” for “all aphids”, “no planthoppers” for “no aphids”

Phaedon cochleariae = Phaedon cochleariae spray test (PHAECO), Chinese cabbage leaf discs; set-up: key to repellent effect flag: REP = repellent effect; conditions: for pest or weed control at 100 g/ha: read-out: efficacy
Method: (§2) [table] To produce a suitable active ingredient formulation, 1 part by weight of active ingredient is dissolved with the specified parts by weight of solvent and made up to the desired concentration with water containing an emulsifier concentration of 1000 ppm. To produce further test concentrations, the formulation is diluted with emulsifier-containing water. Discs of Chinese cabbage leaves (Brassica pekinensis) are sprayed with an active ingredient formulation of the desired concentration and, after drying, populated with larvae of the mustard beetle (Phaedon cochleariae). After 7 days, the efficacy in % is determined. 100% means that all the beetle larvae have been killed; 0% means that no beetle larvae have been killed. [table] To produce an appropriate active ingredient formulation, 1 part by weight of active ingredient is dissolved with the stated parts by weight of solvent and made up with water containing an emulsifier concentration of 1000 ppm until the desired concentration is attained. For production of further test concentrations, the mixture is diluted with emulsifier-containing water. Discs of chinese cabbage leaves (Brassica pekinensis) are sprayed with an active ingredient formulation of the desired concentration and, after drying, populated with larvae of the mustard beetle (Phaedon cochleariae). After the desired time, the efficacy in % is determined. 100% means that all beetle larvae have been killed; 0% means that no beetle larvae have been killed.

Meloidogyne incognita = Meloidogyne incognita test (MELGIN); conditions: 14 days (14 dat); for pest or weed control at 20 ppm: Meloidogyne incognita, 336 h, read-out: efficacy (nematicidal, gall formation)
Method: [table] To produce a suitable active ingredient formulation, 1 part by weight of active ingredient is mixed with the stated amount of solvent and the concentrate is diluted to the desired concentration with water. Vessels are filled with sand, active ingredient solution, an egg/larvae suspension of the southern root-knot nematode (Meloidogyne incognita) and lettuce seeds. The lettuce seeds germinate and the plants develop. The galls develop on the roots. After 14 days, the nematicidal efficacy in % is determined by the formation of galls. 100% means that no galls were found; 0% means that the number of galls on the treated plants corresponds to the untreated control. [table] To produce an appropriate active ingredient formulation, 1 part by weight of active ingredient is mixed with the specified amount of solvent and the concentrate is diluted to the desired concentration with water. Vessels are filled with sand, active ingredient solution, an egg/larvae suspension of the southern root-knot nematode (Meloidogyne incognita) and lettuce seeds. The lettuce seeds germinate and the plants develop. The root-knots develop on the roots. After the desired time, the nematicidal effect is determined from the formation of root-knots in %. 100% means that no root-knots were found; 0% means that the number of root-knots on the treated plants corresponds to that on the untreated control.

Myzus persicae [1] = experiment: Myzus persicae spray test (MYZUPE), Chinese cabbage leaf discs; conditions: for pest or weed control at 20 g/ha / pest or weed control at 100 g/ha: Myzus persicae, foliar, 120 h, 5 days (5 dat), read-out: efficacy
Method: as §2, with “pekinensis) infested by all stages of the green peach aphid (Myzus persicae)” for “pekinensis)”, “concentration.” for “concentration and, after drying, populated with larvae of the mustard beetle (Phaedon cochleariae).”, “5” for “7”, “aphids” for “beetle larvae”

Myzus persicae [2] = experiment: Myzus persicae oral test; conditions: 120 h, after 5 days, read-out: efficacy
Method: [table] To produce a suitable active ingredient formulation, 1 part by weight of active ingredient is dissolved with the stated parts by weight of solvent and made up to the desired concentration with water. 50 μl of the active ingredient preparation are transferred into microtitre plates and made up to a final volume of 200 μl with 150 μl of IPL41 insect medium (33%+15% sugar). Subsequently, the plates are sealed with parafilm, which a mixed population of green peach aphids (Myzus persicae) within a second microtitre plate is able to puncture and imbibe the solution. After 5 days, the efficacy in % is determined. 100% means that all the aphids have been killed; 0% means that no aphids have been killed.

Lucilia cuprina = Lucilia cuprina test; conditions: 48 h, L1 larvae, after 2 days, read-out: efficacy (kill)
Method: Solvent: dimethyl sulfoxide To produce a suitable active ingredient formulation, 10 mg of active ingredient are mixed with 0.5 ml of dimethyl sulfoxide, and the concentrate is diluted with water to the desired concentration. About 20 L1 larvae of the Australian sheep blowfly (Lucilia cuprina) are transferred into a test vessel containing minced horsemeat and the active ingredient formulation of the desired concentration. After 2 days, the kill in % is determined. 100% means that all the larvae have been killed; 0% means that no larvae have been killed.

Myzus persicae [3] = experiment: Myzus persicae spray test (MYZUPE S), bell pepper plants; conditions: 144 h, 0.8 ppm, 6 dat, read-out: % efficacy
Method: [table] To produce an appropriate active ingredient formulation, 1 part by weight of active ingredient is dissolved with the specified parts by weight of solvent and made up with water containing an emulsifier concentration of 1000 ppm until the desired concentration is attained. To produce further test concentrations, the mixture is diluted with emulsifier-containing water. If addition of ammonium salts or/and penetrants is required, these are each added to the preparation solution in a concentration of 1000 ppm. Bell pepper plants (Capsicum annuum) severely infested by the green peach aphid (Myzus persicae) are treated by spraying with the active ingredient formulation in the desired concentration. After the desired time, the kill in % is determined. 100% means that all the animals have been killed; 0% means that no animals have been killed.

Nezara viridula = Nezara viridula spray test (NEZARA / NEZAVI); conditions: Nezara viridula, 96 h, 4 dat, read-out: % efficacy
Method: as §1, with “ppm. Barley” for “ppm. Cotton”, “plants (Hordeum vulgare) infected with larvae of” for “plants (Gossypium hirsutum) severely infested by”, “the southern green shield bug (Nezara viridula)” for “the cotton aphid (Aphis gossypii)”, “the efficacy” for “the kill”, “all bugs” for “all aphids”, “no bugs” for “no aphids”

[4] = Phaedon cochleariae, foliar, 168 h, 100 g/ha, 7 days (7 dat)
[5] = Phaedon cochleariae, foliar, 168 h, PHAECO, 20 g/ha, 7 dat
[6] = Phaedon cochleariae, foliar, 168 h, PHAECO, 20 g/ha, 7 dat, read-out: % efficacy

SMILES	pest or weed control at 0.8 ppm (Myzus persicae [2])	pest or weed control at 100 g/ha (Phaedon cochleariae; [4])	pest or weed control at 20 g/ha (Myzus persicae [1])	pest or weed control at 100 g/ha (Myzus persicae [1])	percent efficacy (larval mortality) at a fixed application rate at 20 g/ha (Phaedon cochleariae; [5])	Emax at 20 g/ha (Phaedon cochleariae; [6])	other results
CCS(=O)(=O)c1ccc(C(=O)NC)nc1-c1nc2cc(C(F)(F)C(F)(F)F)nnc2n1C [Ex. I-39 from WO2017/025419, reference compound]	–	–	–	–	–	–	% efficacy (Aphis gossypii; 0.8 ppm): 0%; % efficacy (Aphis gossypii; 4 ppm): 55%; % efficacy (Nilaparvata lugens): 0%; efficacy (Phaedon cochleariae; 100 g/ha, 7 days (7 dat)): 0%; % efficacy (Phaedon cochleariae; PHAECO, 20 g/ha, 7 dat): 0%; efficacy (nematicidal, gall formation) (Meloidogyne incognita; 20 ppm): 0%; % efficacy (Myzus persicae [1]; MYZUPE, 4 g/ha, 5 dat): 0%
CCS(=O)(=O)c1ccc(C(=O)N(C)C)nc1-c1nc2cc(C(F)(F)C(F)(F)F)nnc2n1C [Example I-05]	100%	100%	90%	90%	–	–	Emax at 0.8 ppm (Aphis gossypii; 0.8 ppm): 65%; pest or weed control at 100 ppm (Lucilia cuprina): 100%; Emax at 0.8 ppm (Myzus persicae [3]): 95%
CNC(=O)c1ccc(S(C)(=O)=O)c(-c2nc3cc(C(F)(F)C(F)(F)F)nnc3n2C)n1 [Example I-06]	100%	67%	70%	90%	–	–	pest or weed control at 100 ppm (Lucilia cuprina): 95%
Cn1c(-c2nc(C(=O)NC3CC3)ccc2S(C)(=O)=O)nc2cc(C(F)(F)C(F)(F)F)nnc21 [Example I-07]	90%	100%	–	–	100%	–	repellent effect flag (Phaedon cochleariae; PHAECO, 20 g/ha, 7 dat): REP
CCNC(=O)c1ccc(S(C)(=O)=O)c(-c2nc3cc(C(F)(F)C(F)(F)F)nnc3n2C)n1 [Example I-14]	90%	100%	–	–	–	83%	pest or weed control at 100 ppm (Lucilia cuprina): 90%
CCS(=O)(=O)c1ccc(N(C)C(=O)N(C)C)nc1-c1nc2cc(C(F)(F)C(F)(F)F)nnc2n1C [Example I-15]	100%	100%	90%	100%	–	83%	Emax at 0.8 g/ha (Nezara viridula): 80%; Emax at 4 g/ha (Nezara viridula): 100%; pest or weed control at 20 ppm (Meloidogyne incognita): 90%
CCS(=O)(=O)c1ccc(C(=O)N(C)C)nc1-c1nc2cc(C(F)(F)F)nnc2n1C [reference compound]	–	33%	–	–	–	–	Emax at 0.8 ppm (Aphis gossypii; 0.8 ppm): 0%; Emax at 0.8 ppm (Myzus persicae [3]): 50%
CNC(=O)c1ccc(S(C)(=O)=O)c(-c2nc3cc(C(F)(F)F)nnc3n2C)n1 [reference compound]	–	0%	0%	0%	–	–	–
Cn1c(-c2nc(C(=O)NC3CC3)ccc2S(C)(=O)=O)nc2cc(C(F)(F)F)nnc21 [reference compound]	–	50%	–	–	–	0%	–
CN(C)C(=O)Nc1ccc(S(C)(=O)=O)c(-c2nc3cc(C(F)(F)F)nnc3n2C)n1 [reference compound]	–	0%	0%	0%	0%	–	pest or weed control at 20 ppm (Meloidogyne incognita): 0%
CCNC(=O)Nc1ccc(S(=O)(=O)CC)c(-c2nc3cc(C(F)(F)F)nnc3n2C)n1 [reference compound]	–	50%	–	–	–	67%	Emax at 4 g/ha (Nezara viridula): 0%; Emax at 4 g/ha (Phaedon cochleariae; Phaedon cochleariae, foliar, 168 h, PHAECO, 4 g/ha, 7 dat, read-out: % efficacy): 0%
CCNC(=O)c1ccc(S(C)(=O)=O)c(-c2nc3cc(C(F)(F)F)nnc3n2C)n1 [reference compound]	–	0%	–	–	0%	–	–
CCS(=O)(=O)c1ccc(N(C)C(=O)N(C)C)nc1-c1nc2cc(C(F)(F)F)nnc2n1C [reference compound]	–	0%	–	–	0%	–	Emax at 0.8 g/ha (Nezara viridula): 0%; Emax at 4 g/ha (Nezara viridula): 50%
